In patent US12201610B2, “Compositions comprising aticaprant” (Janssen Pharmaceuticals, Inc., priority 2022, dated 2025):
Read-outs that look alike come from different tables or passages of the source.

Experiment: Phase 1 PK Part 1: relative bioavailability, dose proportionality, food effect of unmilled API tablet
Type: in vivo, human
Procedure: This is a Phase 1, open-label, single dose, multicenter, 4-part study in healthy adult participants.
Potential participants will be screened from Day −28 to Day −2 to determine participants' eligibility for study participation. For Part 1, qualified participants will be admitted on Day −1 of each treatment period and will remain in-house for the total duration of the treatment (Day −1 until Day 5, with single-dose treatment on Day 1 and 96 hours of PK), whereas for Part 2, PK sampling will be done up to 120 hours (Day 6). Each dosed participant will have a safety follow-up on Day 10 to Day 14 after last dose of the study intervention.
The Part 1 of the study involves determination of relative bioavailability for tablet (Formulation Concept 1, i.e., unmilled aticaprant formulation, see Table 10) and capsule formulations (see Example 6, study design, for description of capsule formulation) and dose proportionality and food effect for tablet formulation (Formulation Concept 1) in healthy adult participants (FIG. 25). Part 1 will consist of Subpart 1A and Subpart 1B consisting of a total of 4 periods. […] Participants will be assigned to 1 of 6 treatment sequences (Table 51) and will be administered the 3 treatments in a 3-way crossover. The same 24 participants who complete Subpart 1A will be enrolled in Subpart 1B. Subpart 1B consists of a fourth period to evaluate the food effect of a single dose of 10 mg aticaprant administered as 1×10 mg oral tablet (Formulation Concept 1) under fed conditions (Treatment D; Table 50 and Table 52). A preliminary PK analysis will be conducted at the end of the food effect part (Subpart 1B) for all the periods from Part 1 and will include the food effect data.
Secondary Objectives: • To assess the safety and tolerability of oral doses of aticaprant in healthy adult participants. Part 2
For each individual participant, there will be a washout period of at least 7 days for Part 1 and at least 8 days for Part 2 between subsequent intakes of the study intervention. Day 1 of a treatment period (day of study intervention intake) is the first day of the washout period (also in between the study parts, if applicable).
Participants will be fasting in Part 1A and Part 2A. Participants will have been fed in Parts 1B and 2B. For a fasted condition, participants will fast (nothing to cat or drink except noncarbonated water) overnight for at least 10 hours before and until 4 hours after study intervention administration during each fasted treatment period. Approximately, 4 hours post-dose and after the 4-hour PK sampling, a standard lunch will be served at the study-site. Intake of water is allowed until 2 hours before the intake of the study intervention. Thereafter, water intake is only allowed for study intervention intake and for breakfast, if applicable. Drinking of water is allowed ad libitum from approximately 2 hours after dosing. For a fed condition, participants will consume, after an overnight fast (at least 10 hours), a standardized high-fat breakfast within a 20-minute period. […] Study intervention will be administered approximately 30 minutes after the start of the breakfast.
In Parts 1 and 2, plasma concentrations will be determined for aticaprant. Blood samples for determination of plasma concentrations of aticaprant will be collected predose and at the postdose time points starting on Day 1 as indicated in the Tables 57-58.
The following plasma PK parameters of aticaprant will be determined. A noncompartmental model with extravascular input will be used for the pharmacokinetic analysis.
Based on the individual concentration-time data, using the actual sampling times, the following PK parameters will be derived for aticaprant: […]

[1] = Dose proportionality: C (Test, 5 mg tablet normalized to 10 mg) vs B (Reference, 10 mg tablet), fasting
[2] = Food effect: Treatment D (high-fat breakfast, Test)/Treatment B (fasting, Reference), 10 mg Formulation Concept 1
[3] = Relative BA: Treatment B (10 mg tablet, Test)/Treatment A (2 × 5 mg capsule, Reference), fasting
[4] = Treatment A: 2 × 5 mg oral capsule, fasting, mean
[5] = Treatment B: 1 × 10 mg Formulation Concept 1 (unmilled API tablet), fasting, mean
[6] = Treatment C (1 × 5 mg Formulation Concept 1, fasting), 5 mg dose normalized to 10 mg, mean (SD)
[7] = Treatment C: 1 × 5 mg Formulation Concept 1 (unmilled API tablet), fasting, mean
[8] = Treatment D: 1 × 10 mg Formulation Concept 1 (unmilled API tablet), after high-fat breakfast, mean
[9] = human, plasma, oral, 5 mg, Treatment C: 1 × 5 mg Formulation Concept 1 (unmilled API tablet), fasting, mean
[10] = human, plasma, oral, 10 mg, Treatment B: 1 × 10 mg Formulation Concept 1 (unmilled API tablet), fasting, mean

Cc1cc(C)cc(C2CCCN2Cc2ccc(Oc3ccc(C(N)=O)cc3F)cc2)c1 (centres unmarked) [aticaprant, 3-fluoro-4-4-2-(3,5-dimethylphenyl)pyrrolidin-1-yl-methylphenoxybenzamide]
Geometric Mean Cmax (Dose proportionality, completers, Treatment B (Reference): 1 × 10 mg Formulation Concept 1, fasting): 32.8 ng/mL
Ratio of Geometric Means, AUClast [1]: 103.20%
Ratio of Geometric Means, AUC∞ [1]: 103.93%
Ratio of Geometric Means, Cmax [1]: 102.12%
Geometric Mean Cmax (Food effect, completers, Treatment B (Reference): 1 × 10 mg Formulation Concept 1, fasting): 32.6 ng/mL
Ratio of Geometric Means, AUClast [2]: 144.01%
Ratio of Geometric Means, AUC∞ [2]: 143.84%
Ratio of Geometric Means, Cmax [2]: 112.49%
Geometric Mean Cmax (Relative BA, completers, Treatment B (Test): 1 × 10 mg Formulation Concept 1, fasting): 32.8 ng/mL
Ratio of Geometric Means, AUClast [3]: 93.31%
Ratio of Geometric Means, AUC∞ [3]: 94.14%
Ratio of Geometric Means, Cmax [3]: 108.64%
CL/F [4]: 34.5 L/h
Λz [4]: 0.030 h⁻¹
CL/F [5]: 36.2 L/h
Cmax [5]: 34.1 ng/mL
Λz [5]: 0.029 h⁻¹
AUClast, C Dose Normalized [6]: 286 (79.7) h * ng/mL
AUC∞, C Dose Normalized [6]: 309 (86.4) h * ng/mL
Cmax, C Dose Normalized [6]: 33.9 (8.97) ng/mL
CL/F [7]: 35.8 L/h
Λz [7]: 0.035 h⁻¹
CL/F [8]: 25.0 L/h
Λz [8]: 0.031 h⁻¹
AUC(0-t) (human, plasma, oral, 5 mg, Dose proportionality, completers, Treatment C (Test): 1 × 5 mg Formulation Concept 1, fasting, 5 mg dose normalized to 10 mg, read-out: Geometric Mean AUClast): 280 ng·h/mL
AUC(0-inf) (human, plasma, oral, 5 mg, Dose proportionality, completers, Treatment C (Test): 1 × 5 mg Formulation Concept 1, fasting, 5 mg dose normalized to 10 mg, read-out: Geometric Mean AUC∞): 299 ng·h/mL
Vd/F [9]: 1150 L
half-life [9]: 24.7 h
AUC(0-t) (human, plasma, oral, 5 mg, Treatment C: 1 × 5 mg Formulation Concept 1 (unmilled API tablet), fasting, mean, read-out: AUClast): 143 ng·h/mL
AUC(0-inf) (human, plasma, oral, 5 mg, Treatment C: 1 × 5 mg Formulation Concept 1 (unmilled API tablet), fasting, mean, read-out: AUC∞): 155 ng·h/mL
Cmax (human, plasma, oral, 5 mg, Treatment C: 1 × 5 mg Formulation Concept 1 (unmilled API tablet), fasting, mean, read-out: Cmax): 17 ng/mL
Tmax (human, plasma, oral, 5 mg, Treatment C: 1 × 5 mg Formulation Concept 1 (unmilled API tablet), fasting, median): 1.5 h
AUC(0-t) (human, plasma, oral, 10 mg, Dose proportionality, completers, Treatment B (Reference): 1 × 10 mg Formulation Concept 1, fasting, read-out: Geometric Mean AUClast): 271 ng·h/mL
AUC(0-inf) (human, plasma, oral, 10 mg, Dose proportionality, completers, Treatment B (Reference): 1 × 10 mg Formulation Concept 1, fasting, read-out: Geometric Mean AUC∞): 287 ng·h/mL
AUC(0-t) (human, plasma, oral, 10 mg, Food effect, completers, Treatment B (Reference): 1 × 10 mg Formulation Concept 1, fasting, read-out: Geometric Mean AUClast): 270 ng·h/mL
AUC(0-inf) (human, plasma, oral, 10 mg, Food effect, completers, Treatment B (Reference): 1 × 10 mg Formulation Concept 1, fasting, read-out: Geometric Mean AUC∞): 287 ng·h/mL
AUC(0-t) (human, plasma, oral, 10 mg, Food effect, completers, Treatment D (Test): 1 × 10 mg Formulation Concept 1, after high-fat breakfast, read-out: Geometric Mean AUClast): 388 ng·h/mL
AUC(0-inf) (human, plasma, oral, 10 mg, Food effect, completers, Treatment D (Test): 1 × 10 mg Formulation Concept 1, after high-fat breakfast, read-out: Geometric Mean AUC∞): 413 ng·h/mL
Cmax (human, plasma, oral, 10 mg, Food effect, completers, Treatment D (Test): 1 × 10 mg Formulation Concept 1, after high-fat breakfast, read-out: Geometric Mean Cmax): 36.6 ng/mL
AUC(0-t) (human, plasma, oral, 10 mg, Relative BA, completers, Treatment B (Test): 1 × 10 mg Formulation Concept 1, fasting, read-out: Geometric Mean AUClast): 271 ng·h/mL
AUC(0-inf) (human, plasma, oral, 10 mg, Relative BA, completers, Treatment B (Test): 1 × 10 mg Formulation Concept 1, fasting, read-out: Geometric Mean AUC∞): 287 ng·h/mL
Vd/F [10]: 1340 L
half-life [10]: 26.6 h
AUC(0-t) (human, plasma, oral, 10 mg, Treatment B: 1 × 10 mg Formulation Concept 1 (unmilled API tablet), fasting, mean, read-out: AUClast): 283 ng·h/mL
